From patent publication US20170029355A1, “LABILE ESTERS OF AGROCHEMICALS FOR CONTROLLED RELEASE AND REDUCTION OF OFF-SITE MOVEMENT” (Monsanto Technology LLC, priority 2011, published 2017)

Columns and labels:
velvetleaf [1] = experiment: Field testing of emulsifiable concentrates, post-emergent control (Example 38); format: in vivo; details: for post-emergent control of velvetleaf compared with the dicamba salt, in words: 280 and 420 g dicamba acid equivalent per hectare; for % control, 280 g/ha, Velvetleaf: 280 g dicamba acid equivalent per hectare; for % control, 280 g/ha, Velvetleaf / % control, 420 g/ha, Velvetleaf: 11 or 21 days after treatment; for % control, 420 g/ha, Velvetleaf: 420 g dicamba acid equivalent per hectare
Description: (§1) Four dicamba esters, 1a, 2, 9, and 13a, were formulated as emulsifiable concentrates for field testing. All formulations contained 5% each of a alkylbenzene sulfonate calcium salt (Huntsman NANSA EVM 62/H or Akzo Nobel WITCONATE P-1220 EH) and castor oil ethoxylate (Huntsman SURFONIC CO-54) as the emulsifiers and Aromatic 200 (Exxon) or monochlorobenzene (MCB) as the solvent.
(§2) The esters were compared to the diglycolamine salt of dicamba (CLARITY™) for post-emergent control of three broadleaf weeds: velvetleaf, morning glory, and hemp sesbania. Rates of 280 and 420 g dicamba acid equivalent per hectare were used. […] Evaluations were conducted at 11 or 21 days after treatment. Locations and timing were identical for all formulations tested.

hemp sesbania = experiment: as above; format: in vivo; details: for post-emergent control of hemp sesbania compared with the dicamba salt, in words: 280 and 420 g dicamba acid equivalent per hectare; for % control, 280 g/ha, Hemp sesbania: 280 g dicamba acid equivalent per hectare; for % control, 280 g/ha, Hemp sesbania / % control, 420 g/ha, Hemp sesbania: 11 or 21 days after treatment; for % control, 420 g/ha, Hemp sesbania: 420 g dicamba acid equivalent per hectare
Description: as §1, §2

morning glory = experiment: as above; format: in vivo; details: for post-emergent control of morning glory compared with the dicamba salt, in words: 280 and 420 g dicamba acid equivalent per hectare; for % control, 280 g/ha, Morning glory: 280 g dicamba acid equivalent per hectare; for % control, 280 g/ha, Morning glory / % control, 420 g/ha, Morning glory: 11 or 21 days after treatment; for % control, 420 g/ha, Morning glory: 420 g dicamba acid equivalent per hectare
Description: as §1, §2

[2] = In vitro dicamba photo-release from photo-labile dicamba esters, tetrahydrofuran solvent (Example 26); format: physicochemical; details: THF, 0.1 mM ester; for Dark Control % dicamba: initial solution kept away from the light source, analyzed at conclusion of study
Method: This Example describes in vitro testing of dicamba photo-release by homogeneous solutions of photo-labile dicamba esters. The esters were dissolved in tetrahydrofuran (THF). Ester concentration was 0.1 mM. 25 ml of the solution was transferred to 22 mm tubes fabricated from graded seal quartz tubing with a 19/22 tapered seal at the top, which was closed with a tapered glass plug and secured with a plastic ring clamp. The solution was entirely below the quartz-to-glass transition, ensuring that the entire volume was exposed to the full spectrum.
The sealed tubes were placed in a Growth Chamber where they were exposed to simulated sunlight for 14 hours per day at 35° C. Dicamba concentrations in the solution were measured during the course of the photolysis.
A sample of the initial solution was reserved in a glass vial away from the light source and analyzed at the conclusion of the study, providing a measurement of the amount of dicamba present without illumination of the photolysis solution (the “dark control”).

velvetleaf [3] = experiment: Greenhouse post-emergent control of velvetleaf by emulsifiable concentrates (Example 29); format: in vivo; details: three weeks after treatment
Procedure, shortened: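 Greenhouse velvetleaf 10–15 cm tall sprayed post-emergence with photo-labile ester emulsifiable concentrates at 140, 280, 420 and 560 g dicamba equivalent/ha, alongside dicamba diglycolamine salt at the same rates and untreated plants. Percent control scored three weeks after treatment.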

[4] = tested on: glyphosate-tolerant, dicamba-sensitive soy plants; experiment: Humidome volatility injury to dicamba-sensitive plants (Example 31); details: assessed after three weeks in greenhouse; for % Injury: soy plants 24 hours in closed humidome over sprayed soil (0.5% dicamba equivalent + 1.5% glyphosate), 35° C.; for Growth Stage: soy plants 24 hours in closed humidome over sprayed soil
Description: In this case, the diglycolamine salt of dicamba (CLARITY®) was used for comparison.
Dicamba photo-labile ester formulations from Example 28 were mixed with a commercial glyphosate formulation (ROUNDUP POWERMAX®) and diluted to provide a solution with a 0.5% dicamba equivalent concentrate of the ester (or dicamba diglycolamine salt) and 1.5% concentrate of glyphosate. The mixtures were sprayed at a 10 gallon per acre (93.5 liters per hectare) rate on soil in a plastic container (“humidome”) with a transparent lid. One soil container was sprayed with water as a control. Four glyphosate-tolerant, dicamba-sensitive soy plants between V2 and V3 stage were immediately placed on the sprayed soil and the domes attached to the trays with binder clips. The soy plants were in pots placed directly on the soil but with aluminum foil wrapped around the bottom to prevent uptake of dicamba or dicamba esters through the roots.
The closed containers were held for 24 hours in a growth chamber which was maintained at 35° C. with 40% relative humidity. The plants were then removed and grown in a greenhouse for three weeks. At this time plant injury and growth stage were assessed compared to the control treated with water only.

[5] = In vitro photo-release and hydrolytic release of dicamba in an aqueous medium (Example 35); format: physicochemical; details: 0.01 mM ester, 35° C.
Method: This Example describes the determination of photo-lability and hydrolytic lability of dicamba esters in an aqueous medium. 1 mM solutions of the esters were prepared in acetonitrile (or […] solutions of dicamba diesters). The solutions were then diluted with deionized water to a concentration of 0.01 mM (or 0.005 mM for diesters). The solutions were then transferred to quartz tubes and amber bottles and held in a growth chamber by the procedure of Example 26. A 14-hour day was generally used at a constant temperature of 35° C. Hydrolytic activity was assessed by measuring the increase in dicamba concentration after day zero in the amber (dark) bottles. […] Photolysis manifested itself as increased conversion in the quartz tubes compared to the dark control.

broadleaf weeds = experiment: Control of broadleaf weeds by ester concentrates (statements of the description); format: in vivo; details: for control of a number of broadleaf weeds in field testing, in words: emulsifiable and suspension concentrates, Sesbania macrocarpa, morning glory, velvetleaf, Palmer amaranth, fat hen, sicklepod
Euphorbia species = experiment: Field testing for post-emergent activity in the Southern Hemisphere (Example 39); format: in vivo; details: 9 as suspension concentrate, other esters as emulsifiable concentrates
Procedure, shortened: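 Southern Hemisphere field trial, post-emergence application on Euphorbia weeds. Esters applied as emulsifiable concentrates in aromatic solvent with emulsifiers, one ester as a suspension concentrate. Dicamba diglycolamine salt served as comparator.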

[6] = simulated sunlight 14 hours per day, 35° C.

With `COc1c(Cl)ccc(Cl)c1C(=O)OCCc1ccccc1[N+](=O)[O-]` [Ester 2, 2-Nitrophenethyl Ester of Dicamba] the “post-emergent control of velvetleaf compared with the dicamba salt, in words” value (velvetleaf [1]) was “equivalent to the dicamba salt”, the “% control, 280 g/ha, Velvetleaf” value (velvetleaf [1]) was 85% and the “% control, 420 g/ha, Velvetleaf” value (velvetleaf [1]) was 92%. For the same compound, the “post-emergent control of hemp sesbania compared with the dicamba salt, in words” value (hemp sesbania) was “equivalent to the dicamba salt”, the “% control, 280 g/ha, Hemp sesbania” value (hemp sesbania) was 92% and the “% control, 420 g/ha, Hemp sesbania” value (hemp sesbania) was 97%. For the same compound, the “post-emergent control of morning glory compared with the dicamba salt, in words” value (morning glory) was “equivalent to the dicamba salt”, the “% control, 280 g/ha, Morning glory” value (morning glory) was 94% and the “% control, 420 g/ha, Morning glory” value (morning glory) was 95%. The “Dark Control % dicamba” value [2] was 0%, the “Conversion to dicamba, 1 day” value [2, 6] was 46% and the “Conversion to dicamba, 2 days” value [2, 6] was 54%. For the same compound, the “Conversion to dicamba, 3 days” value [2, 6] was 72%, the “Conversion to dicamba, 5 days” value [2, 6] was 84% and the “Conversion to dicamba, 7 days” value [2, 6] was 88%. For the same compound, the “Conversion to dicamba, 9 days” value ([2]; simulated sunlight 14 hours per day, 35° C., 9 days) was 98%, the “Conversion to dicamba, 12 days” value ([2]; simulated sunlight 14 hours per day, 35° C., 12 days) was 96% and the “Conversion to dicamba, 15 days” value [2, 6] was 95%. For the same compound, the “% Control of velvetleaf, 140 g/ha” value (velvetleaf [3]; 140 g dicamba equivalent per hectare) was 50%, the “% Control of velvetleaf, 280 g/ha” value (velvetleaf [3]; 280 g dicamba equivalent per hectare) was 69% and the “% Control of velvetleaf, 420 g/ha” value (velvetleaf [3]; 420 g dicamba equivalent per hectare) was 78%. The “% Control of velvetleaf, 560 g/ha” value (velvetleaf [3]; 560 g dicamba equivalent per hectare) was 90%, the “% Injury” value [4] was 13% and the “Growth Stage” value [4] was 9. For the same compound, the “Conversion to Dicamba, Dark, Day 0” value ([5]; amber (dark) bottle) was 3%, the “Conversion to Dicamba, Dark, Day 1” value ([5]; amber (dark) bottle) was 3% and the “Conversion to Dicamba, Dark, Day 2” value ([5]; amber (dark) bottle) was 3%. For the same compound, the “Conversion to Dicamba, Dark, Day 3” value ([5]; amber (dark) bottle) was 3%, the “Conversion to Dicamba, Dark, Day 4” value ([5]; amber (dark) bottle) was 3% and the “Conversion to Dicamba, Dark, Day 7” value ([5]; amber (dark) bottle) was 3%. For the same compound, the “Conversion to dicamba, Dark, Day 10” value ([5]; amber (dark) bottle, Day 10) was 3%, the “Conversion to Dicamba, Dark, Day 14” value ([5]; amber (dark) bottle) was 3% and the “Conversion to Dicamba, Dark, Day 21” value ([5]; amber (dark) bottle, Day 21) was 3%. The “Conversion to Dicamba, Dark, Day 28” value ([5]; amber (dark) bottle, Day 28) was 3%, the “Conversion to Dicamba, Light, Day 0” value ([5]; quartz tube, 14-hour day) was 3% and the “Conversion to Dicamba, Light, Day 1” value ([5]; quartz tube, 14-hour day) was 78%. For the same compound, the “Conversion to Dicamba, Light, Day 2” value ([5]; quartz tube, 14-hour day) was 79%, the “Conversion to Dicamba, Light, Day 3” value ([5]; quartz tube, 14-hour day) was 75% and the “Conversion to Dicamba, Light, Day 4” value ([5]; quartz tube, 14-hour day) was 77%. For the same compound, the “Conversion to Dicamba, Light, Day 7” value ([5]; quartz tube, 14-hour day) was 78%, the “Conversion to dicamba, Light, Day 10” value ([5]; quartz tube, 14-hour day, Day 10) was 84% and the “Conversion to Dicamba, Light, Day 14” value ([5]; quartz tube, 14-hour day) was 82%. For the same compound, the “Conversion to Dicamba, Light, Day 21” value ([5]; quartz tube, 14-hour day, Day 21) was 83%, the “Conversion to Dicamba, Light, Day 28” value ([5]; quartz tube, 14-hour day, Day 28) was 86% and the “control of a number of broadleaf weeds in field testing, in words” value (broadleaf weeds) was “proven effective”. The “field efficacy for control of broadleaf weeds compared with the diglycolamine salt of dicamba, in words” value (broadleaf weeds; field tests of emulsifiable concentrates) was “slightly more effective than the diglycolamine salt of dicamba”.

For `COc1c(Cl)ccc(Cl)c1C(=O)Oc1cnc2ccccc2n1` [Ester 13a, 2-quinoxalinol ester of dicamba], the “post-emergent control of velvetleaf compared with the dicamba salt, in words” value (velvetleaf [1]) was “nearly equivalent to the dicamba salt”, the “% control, 280 g/ha, Velvetleaf” value (velvetleaf [1]) was 72% and the “% control, 420 g/ha, Velvetleaf” value (velvetleaf [1]) was 84%. For the same compound, the “post-emergent control of hemp sesbania compared with the dicamba salt, in words” value (hemp sesbania) was “equivalent to the dicamba salt”, the “% control, 280 g/ha, Hemp sesbania” value (hemp sesbania) was 95% and the “% control, 420 g/ha, Hemp sesbania” value (hemp sesbania) was 98%. The “post-emergent control of morning glory compared with the dicamba salt, in words” value (morning glory) was “equivalent to the dicamba salt”, the “% control, 280 g/ha, Morning glory” value (morning glory) was 100% and the “% control, 420 g/ha, Morning glory” value (morning glory) was 100%. The “Dark Control % dicamba” value [2] was 11%, the “Conversion to dicamba, 1 day” value [2, 6] was 28% and the “Conversion to dicamba, 2 days” value [2, 6] was 35%. The “Conversion to dicamba, 3 days” value [2, 6] was 43%, the “Conversion to dicamba, 5 days” value [2, 6] was 48% and the “Conversion to dicamba, 7 days” value [2, 6] was 61%. For the same compound, the “Conversion to dicamba, 11 days” value ([2]; simulated sunlight 14 hours per day, 35° C., 11 days) was 66%, the “Conversion to dicamba, 15 days” value [2, 6] was 68% and the “% Injury” value [4] was 18%. The “Growth Stage” value [4] was 8, the “% control, 0.25 lb/ac (0.28 kg/hectare)” value (Euphorbia species; 0.25 lb dicamba a.e. per acre) was 46% and the “% control, 0.50 lb/ac (0.56 kg/hectare)” value (Euphorbia species; 0.50 lb dicamba a.e. per acre) was 55%. For the same compound, the “Conversion to Dicamba, Dark, Day 0” value ([5]; amber (dark) bottle) was 8%, the “Conversion to Dicamba, Dark, Day 1” value ([5]; amber (dark) bottle) was 7% and the “Conversion to Dicamba, Dark, Day 2” value ([5]; amber (dark) bottle) was 7%. The “Conversion to Dicamba, Dark, Day 3” value ([5]; amber (dark) bottle) was 8%, the “Conversion to Dicamba, Dark, Day 4” value ([5]; amber (dark) bottle) was 8% and the “Conversion to Dicamba, Dark, Day 7” value ([5]; amber (dark) bottle) was 9%. For the same compound, the “Conversion to dicamba, Dark, Day 11” value ([5]; amber (dark) bottle, Day 11) was 11%, the “Conversion to Dicamba, Dark, Day 14” value ([5]; amber (dark) bottle) was 12% and the “Conversion to Dicamba, Light, Day 0” value ([5]; quartz tube, 14-hour day) was 8%. The “Conversion to Dicamba, Light, Day 1” value ([5]; quartz tube, 14-hour day) was 9%, the “Conversion to Dicamba, Light, Day 2” value ([5]; quartz tube, 14-hour day) was 12% and the “Conversion to Dicamba, Light, Day 3” value ([5]; quartz tube, 14-hour day) was 13%. The “Conversion to Dicamba, Light, Day 4” value ([5]; quartz tube, 14-hour day) was 13%, the “Conversion to Dicamba, Light, Day 7” value ([5]; quartz tube, 14-hour day) was 15% and the “Conversion to dicamba, Light, Day 11” value ([5]; quartz tube, 14-hour day, Day 11) was 19%. For the same compound, the “Conversion to Dicamba, Light, Day 14” value ([5]; quartz tube, 14-hour day) was 20% and the “control of a number of broadleaf weeds in field testing, in words” value (broadleaf weeds) was “proven effective”.
